Measurements from US20090087389A1, “DEHYDROEPIAN[…] DIHYDRATE INHALATION COMPOSITIONS AND METHODS” ([…] PHARMACEUTICALS, LLC., priority 2002, published 2009).

Tests used:
[1] = Nebulizer studies (Pari ProNeb Ultra / LC Plus, AS-6 impactor, by-pass collector); conditions: 0.12% NaCl; no precipitate during nebulization
Experimental: Nebulizer Studies. […] The nebulizer is filled with 5 mL of solution and nebulization is continued until the output became visually insignificant (4½ to 5 min.). Nebulizer solutions are tested using a California Instruments AS-6 6-stage impactor with a USP throat. The impactor is run at 30 L/min for 8 seconds to collect a sample following one minute of nebulization time. At all other times during the experiment, the aerosol is drawn through the by-pass collector at approximately 33 L/min. The collection apparatus, nebulizer, and impactor are rinsed with mobile phase and assayed by HPLC. […] This volume is selected as the practical upper limit for use in a clinical study.

[2] = Stability at 50° C. with and without lactose (DHEA formation by HPLC); format: physicochemical; conditions: 1 week at 50° C.
Source text: These conditions were used to stress the formulation in order to predict its long-term stability results.
The primary degradant is dehydroepiandrosterone or DHEA. […] The materials on accelerated storage become more cohesive with time as evidenced by clumping during sample weighing for chemical analysis. […] This is a considerable disadvantage since lactose is the most commonly used inhalation excipient for dry powder formulations. Continuing with the virtually anhydrous form would mean limiting formulations to neat powder or undertaking more comprehensive safety studies to use a novel excipient.

[3] = solid state; cited from earlier work

C[C@]12CC[C@H](OS(=O)(=O)[O-])CC1=CC[C@@H]1[C@@H]2CC[C@]2(C)C(=O)CC[C@@H]12.[Na+] [DHEA-S, sodium dehydroepiandrostenone sulfate]
highest solution concentration for a proof of concept clinical trial formulation [1]: approximately 7.5 mg/mL

CC12CCC3C(CC=C4CC(OS(=O)(=O)[O-])CCC43C)C1CCC2=O.[Na+] (stereo not drawn) [DHEA-S dihydrate, dehydroepiandrosterone sodium sulfate dihydrate]
color after storage [2]: no change in color

C[C@]12CC[C@H](OS(=O)(=O)[O-])CC1=CC[C@@H]1[C@@H]2CC[C@]2(C)C(=O)CC[C@@H]12.[Na+] [Anhydrous DHEA-S]
hygroscopicity [3]: very hygroscopic
